According to patent US20190031665A1, “DERIVATIVES OF PYRROLOIMIDAZOLE OR ANALOGUES THEREOF WHICH ARE USEFUL FOR THE TREATMENT OF INTER ALIA CANCER” (EMCURE PHARMACEUTICALS LIMITED, priority 2016, published 2019):

Legend:
[1] = biological target: T1, human tryptophan 2,3-dioxygenase (hTDO) (Homo sapiens, UniProt P48775); experiment: In-vitro human tryptophan 2,3-dioxygenase (TDO) enzyme assay; assay type: biochemical; details: for inhibition at 1 µM: hTDO enzyme at 1.0 μM concentration; for inhibition at 10 µM: hTDO enzyme at 10.0 μM concentration
T1 construct: His tag (N); purchased BPS Bioscience, San Diego, Calif., USA; host or cells: E. coli
Experimental: (§1) In the in-vitro human tryptophan 2,3-dioxygenase (hTDO) enzyme assay for screening inhibitor compounds, hTDO with an N-terminal histidine tag expressed and purified from E. coli (BPS Bioscience, San Diego, Calif., USA) was used. All other materials were procured from Sigma-Aldrich, St. Louis, Mo., USA.
The assay monitoring method for the conversion of L-tryptophan to N-formylkynurenine by hTDO was carried out as follows. hTDO (125 ng) was incubated in the presence of 200 μM L-tryptophan, 100 mM sodium phosphate buffer (pH 7.0), 0.01% Tween-20 and 100 μM ascorbic acid at about 37° C. for about 60 minutes. The reaction was terminated with 200 mM piperidine (PIP) and further incubated at about 65° C. for about 20 minutes to convert N-formylkynurenine (NFK) to NFK-PIP. The reaction mixture was then incubated at room temperature for about 75 minutes. The fluorescence intensity was read in a fluorescence microplate reader at an excitation wavelength of 400 nm and emission wavelength of 500 nm. Percent inhibition at each concentration of test compounds was determined by estimating the decrease in NFK-PIP. Data were analyzed using nonlinear regression to generate IC50 values using Graph Pad Prism® 6.

[2] = biological target: T2, human indoleamine 2,3-dioxygenase 1 (hIDO1) (Homo sapiens, UniProt P14902); experiment: In-vitro human indoleamine 2,3-dioxygenase 1 (IDO1) enzyme assay; assay type: biochemical; details: for IC50: hIDO1 enzyme; for inhibition at 1 µM: hIDO1 enzyme at 1.0 μM concentration; for inhibition at 10 µM: hIDO1 enzyme at 10.0 μM concentration
T2 construct: His tag (N); purchased BPS Bioscience, San Diego, Calif., USA; host or cells: E. coli
Experimental: as §1, with “In-vitro human indoleamine 2,3-dioxygenase 1 (IDO1) enzyme assay: In” for “In”, “indoleamine” for “tryptophan”, “1 (hIDO1)” for “(hTDO)”, “hIDO1” for “hTDO”
The assay method for monitoring the conversion of L-tryptophan to N-formylkynurenine by hlDO1 was carried out as follows. hlDO1 (50 ng) was incubated with tryptophan (80 μM) in the presence of ascorbic acid (10 mM), methylene blue (10 μM), catalase (100 μg/ml) and 0.01% Tween-20 in sodium phosphate buffer (50 mM; pH 6.5) at 37° C. for 60 min. The reaction was terminated with 200 mM piperidine (PIP) and further incubated at about 65° C. for about 20 minutes to convert N-formylkynurenine (NFK) to NFK-PIP. The reaction mixture was then incubated at room temperature for about 1 hour. The fluorescence intensity was read in a fluorescence microplate reader at an excitation wavelength of 400 nm and emission wavelength of 500 nm. Percent inhibition at each concentration of test compounds was determined by estimating the decrease in NFK-PIP. Data were analyzed using nonlinear regression to generate IC50 values using Graph Pad Prism® 6.

T2 sequence (P14902 whole entry): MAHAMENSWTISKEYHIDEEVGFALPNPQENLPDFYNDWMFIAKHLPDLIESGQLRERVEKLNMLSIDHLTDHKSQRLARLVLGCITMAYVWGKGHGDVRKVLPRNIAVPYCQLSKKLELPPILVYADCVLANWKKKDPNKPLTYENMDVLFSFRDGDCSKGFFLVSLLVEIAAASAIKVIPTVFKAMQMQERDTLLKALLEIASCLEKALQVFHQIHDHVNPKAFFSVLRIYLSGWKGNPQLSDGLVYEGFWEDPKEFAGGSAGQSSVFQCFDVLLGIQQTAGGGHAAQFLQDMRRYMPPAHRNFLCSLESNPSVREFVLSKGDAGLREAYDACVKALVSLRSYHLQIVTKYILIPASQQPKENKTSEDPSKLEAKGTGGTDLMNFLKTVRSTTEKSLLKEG
T1 sequence (P48775 whole entry): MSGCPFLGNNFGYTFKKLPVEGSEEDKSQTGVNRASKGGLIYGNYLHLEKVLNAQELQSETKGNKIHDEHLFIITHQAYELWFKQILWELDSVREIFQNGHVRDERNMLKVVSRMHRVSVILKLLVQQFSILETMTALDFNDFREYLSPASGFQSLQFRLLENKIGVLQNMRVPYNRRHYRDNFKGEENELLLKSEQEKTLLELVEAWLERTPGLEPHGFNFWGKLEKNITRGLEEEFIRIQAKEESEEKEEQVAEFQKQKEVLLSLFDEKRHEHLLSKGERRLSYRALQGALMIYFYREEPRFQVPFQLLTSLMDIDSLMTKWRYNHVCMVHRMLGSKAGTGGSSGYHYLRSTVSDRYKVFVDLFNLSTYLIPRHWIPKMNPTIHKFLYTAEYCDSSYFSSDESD

CC1=C(c2ccccc2)C(CC(=O)c2cccc(F)c2)n2cncc21 (stereo not shown) [Example 20, 1-(3-Fluoro-phenyl)-2-(7-methyl-6-phenyl-5H-pyrrolo[1,2-c]imidazol-5-yl)-ethanone]
inhibition at 1 µM [1]: ≥ 50%
inhibition at 10 µM [1]: ≥ 50%
IC50 [2]: > 0.5 µM
inhibition at 1 µM [2]: ≥ 50%
inhibition at 10 µM [2]: ≥ 50%

CCOC(=O)CC1C(c2ccccc2)=C(C)c2cncn21 (stereo not shown) [Example 22]
inhibition at 10 µM [1]: ≥ 50%
inhibition at 1 µM [2]: ≤ 50%
inhibition at 10 µM [2]: ≥ 50%

COC(=O)c1cccc(C(=O)CC2C(c3ccccc3)=C(C)c3cncn32)c1 (stereo not shown) [Example 23, 3-[2-(7-Methyl-6-phenyl-5H-pyrrolo[1,2-c]imidazol-5-yl)-acetyl]-benzoic acid methyl ester]
inhibition at 1 µM [1]: ≥ 50%
inhibition at 10 µM [1]: ≥ 50%
inhibition at 1 µM [2]: ≤ 50%
inhibition at 10 µM [2]: ≥ 50%

CC1=C(c2ccccc2)C(CC(=O)c2ccc(C(=O)O)cc2)n2cncc21 (stereo not shown) [Example 24, 4-[2-(7-Methyl-6-phenyl-5H-pyrrolo[1,2-c]imidazol-5-yl)-acetyl]-benzoic acid]
inhibition at 1 µM [1]: ≥ 50%
inhibition at 10 µM [1]: ≥ 50%
inhibition at 1 µM [2]: ≤ 50%
inhibition at 10 µM [2]: ≥ 50%

CC1=C(c2ccccc2)C(CC(=O)c2ccc3ccccc3c2)n2cncc21 (stereo not shown) [Example 25, 2-(7-Methyl-6-phenyl-5H-pyrrolo[1,2-c]imidazol-5-yl)-1-naphthalen-2-yl-ethanone]
inhibition at 1 µM [1]: ≥ 50%
inhibition at 10 µM [1]: ≥ 50%
IC50 [2]: < 0.5 µM
inhibition at 1 µM [2]: ≥ 50%
inhibition at 10 µM [2]: ≥ 50%

CC1=C(c2ccccc2)C(CC(=O)C2CC2)n2cncc21 (stereo not shown) [Example 26, 1-Cyclopropyl-2-(7-methyl-6-phenyl-5H-pyrrolo[1,2-c]imidazol-5-yl)-ethanone]
inhibition at 1 µM [1]: ≥ 50%
inhibition at 10 µM [1]: ≥ 50%
inhibition at 1 µM [2]: ≤ 50%
inhibition at 10 µM [2]: ≥ 50%

CC1=C(c2ccccc2)C(CC(=O)c2ccc(C)cc2)n2cncc21 (stereo not shown) [Example 27, 2-(7-Methyl-6-phenyl-5H-pyrrolo[1,2-c]imidazol-5-yl)-1-p-tolyl-ethanone]
inhibition at 1 µM [1]: ≥ 50%
inhibition at 10 µM [1]: ≥ 50%
inhibition at 1 µM [2]: ≤ 50%
inhibition at 10 µM [2]: ≥ 50%

CC1=C(c2ccccc2)C(CC(=O)c2ccc3c(c2)OCO3)n2cncc21 (stereo not shown) [Example 28, 1-Benzo[1,3]dioxol-5-yl-2-(7-methyl-6-phenyl-5H-pyrrolo[1,2-c]imidazol-5-yl)-ethanone]
inhibition at 1 µM [1]: ≥ 50%
inhibition at 10 µM [1]: ≥ 50%
IC50 [2]: < 0.5 µM
inhibition at 1 µM [2]: ≥ 50%
inhibition at 10 µM [2]: ≥ 50%

CC1=C(c2ccccc2)C(CC(=O)c2cccc(C(F)(F)F)c2)n2cncc21 (stereo not shown) [Example 29, 2-(7-Methyl-6-phenyl-5H-pyrrolo[1,2-c]imidazol-5-yl)-1-(3-trifluoromethyl-phenyl)-ethanone]
inhibition at 1 µM [1]: ≥ 50%
inhibition at 10 µM [1]: ≥ 50%
IC50 [2]: < 0.5 µM
inhibition at 1 µM [2]: ≥ 50%
inhibition at 10 µM [2]: ≥ 50%

COc1ccccc1C(=O)CC1C(c2ccccc2)=C(C)c2cncn21 (stereo not shown) [Example 32, 1-(2-methoxyphenyl)-2-(7-methyl-6-phenyl-5H-pyrrolo[1,2-c]imidazol-5-yl)ethan-1-one]
inhibition at 10 µM [1]: ≥ 50%
inhibition at 1 µM [2]: ≤ 50%
inhibition at 10 µM [2]: ≤ 50%

COc1cccc(C(=O)CC2C(c3ccccc3)=C(C)c3cncn32)c1 (stereo not shown) [Example 33, 1-(3-Methoxy-phenyl)-2-(7-methyl-6-phenyl-5H-pyrrolo[1,2-c]imidazol-5-yl)-ethanone]
inhibition at 10 µM [1]: ≥ 50%
inhibition at 1 µM [2]: ≤ 50%
inhibition at 10 µM [2]: ≥ 50%

CC1=C(c2ccccc2)C(CC(=O)c2ccc(F)cc2)n2cncc21 (stereo not shown) [Example 34, 1-(4-fluorophenyl)-2-(7-methyl-6-phenyl-5H-pyrrolo[1,2-c]imidazol-5-yl)ethan-1-one]
inhibition at 1 µM [1]: ≥ 50%
inhibition at 10 µM [1]: ≥ 50%
inhibition at 1 µM [2]: ≥ 50%
inhibition at 10 µM [2]: ≥ 50%

CC1=C(c2ccccc2)C(CC(O)c2ccc(F)cc2)n2cncc21 (stereo not shown) [Example 35, 1-(4-fluorophenyl)-2-(7-methyl-6-phenyl-5H-pyrrolo[1,2-c]imidazol-5-yl)ethan-1-ol]
inhibition at 1 µM [1]: ≥ 50%
inhibition at 1 µM [2]: ≤ 50%
inhibition at 10 µM [2]: ≥ 50%

CC1=C(c2ccccc2)C(CC(=O)c2cc(F)ccc2F)n2cncc21 (stereo not shown) [Example 36, 1-(2,5-difluorophenyl)-2-(7-methyl-6-phenyl-5H-pyrrolo[1,2-c]imidazol-5-yl)ethan-1-one]
inhibition at 1 µM [1]: ≥ 50%
inhibition at 10 µM [1]: ≥ 50%
inhibition at 1 µM [2]: ≥ 50%
inhibition at 10 µM [2]: ≥ 50%

COc1ccc(C(=O)CC2C(c3ccccc3)=C(C)c3cncn32)cc1 (stereo not shown) [Example 37, 1-(4-methoxyphenyl)-2-(7-methyl-6-phenyl-5H-pyrrolo[1,2-c]imidazol-5-yl)ethan-1-one]
inhibition at 1 µM [1]: ≥ 50%
IC50 [2]: < 0.5 µM
inhibition at 1 µM [2]: ≥ 50%
inhibition at 10 µM [2]: ≥ 50%

CC1=C(c2ccccc2)C(CC(=O)c2ccc(Cl)cc2)n2cncc21 (stereo not shown) [Example 38, 1-(4-chlorophenyl)-2-(7-methyl-6-phenyl-5H-pyrrolo[1,2-c]imidazol-5-yl)ethan-1-one]
inhibition at 1 µM [1]: ≥ 50%
IC50 [2]: < 0.5 µM
inhibition at 1 µM [2]: ≥ 50%
inhibition at 10 µM [2]: ≥ 50%

CC1=C(c2ccccc2)C(CC(=O)c2ccc(F)c(Cl)c2)n2cncc21 (stereo not shown) [Example 39, 1-(3-chloro-4-fluorophenyl)-2-(7-methyl-6-phenyl-5H-pyrrolo[1,2-c]imidazol-5-yl)ethan-1-one]
inhibition at 1 µM [1]: ≥ 50%
IC50 [2]: < 0.5 µM
inhibition at 1 µM [2]: ≥ 50%
inhibition at 10 µM [2]: ≥ 50%

CC1=C(c2ccccc2)C(CC(=O)c2cccc3ccccc23)n2cncc21 (stereo not shown) [Example 40, 2-(7-methyl-6-phenyl-5H-pyrrolo[1,2-c]imidazol-5-yl)-1-(naphthalen-1-yl)ethan-1-one]
inhibition at 1 µM [1]: ≥ 50%
inhibition at 1 µM [2]: ≥ 50%
inhibition at 10 µM [2]: ≥ 50%

CC1=C(c2ccccc2)C(CC(=O)c2ccc(-c3ccccc3)cc2)n2cncc21 (stereo not shown) [Example 41, 1-([1,1′-biphenyl]-4-yl)-2-(7-methyl-6-phenyl-5H-pyrrolo[1,2-c]imidazol-5-yl)ethan-1-one]
inhibition at 1 µM [1]: ≥ 50%
IC50 [2]: < 0.5 µM
inhibition at 1 µM [2]: ≥ 50%
inhibition at 10 µM [2]: ≥ 50%

CC1=C(c2ccccc2)C(CC(O)c2ccc(-c3ccccc3)cc2)n2cncc21 (stereo not shown) [Example 44, 1-([1,1′-biphenyl]-4-yl)-2-(7-methyl-6-phenyl-5H-pyrrolo[1,2-c]imidazol-5-yl)ethan-1-ol]
inhibition at 1 µM [1]: ≥ 50%
inhibition at 1 µM [2]: ≥ 50%
inhibition at 10 µM [2]: ≥ 50%

CC1=C(c2ccccc2)C(CC(=O)c2ccsc2)n2cncc21 (stereo not shown) [Example 45, 2-(7-methyl-6-phenyl-5H-pyrrolo[1,2-c]imidazol-5-yl)-1-(thiophen-3-yl)ethan-1-one]
inhibition at 1 µM [1]: ≥ 50%
inhibition at 1 µM [2]: ≤ 50%
inhibition at 10 µM [2]: ≥ 50%

CC1=C(c2ccccc2)C(CC(=O)c2ccc(N(C)C)cc2)n2cncc21 (stereo not shown) [Example 46, 1-(4-(dimethylamino)phenyl)-2-(7-methyl-6-phenyl-5H-pyrrolo[1,2-c]imidazol-5-yl)ethan-1-one]
inhibition at 1 µM [1]: ≥ 50%
inhibition at 1 µM [2]: ≤ 50%
inhibition at 10 µM [2]: ≥ 50%

CC1=C(c2ccccc2)C(CC(=O)c2ccc3c(c2)CCCC3)n2cncc21 (stereo not shown) [Example 47, 2-(7-methyl-6-phenyl-5H-pyrrolo[1,2-c]imidazol-5-yl)-1-(5,6,7,8-tetrahydronaphthalen-2-yl)ethan-1-one]
inhibition at 1 µM [1]: ≥ 50%
inhibition at 1 µM [2]: ≥ 50%
inhibition at 10 µM [2]: ≥ 50%

CC1=C(c2ccccc2)C(CC(=O)c2ccc(Oc3ccccc3)cc2)n2cncc21 (stereo not shown) [Example 48, 2-(7-methyl-6-phenyl-5H-pyrrolo[1,2-c]imidazol-5-yl)-1-(4-phenoxyphenyl)ethan-1-one]
inhibition at 1 µM [1]: ≥ 50%
IC50 [2]: > 0.5 µM
inhibition at 1 µM [2]: ≥ 50%
inhibition at 10 µM [2]: ≥ 50%

CC1=C(c2ccccc2)C(CC(=O)c2ccc(N3CCOCC3)cc2)n2cncc21 (stereo not shown) [Example 49, 2-(7-methyl-6-phenyl-5H-pyrrolo[1,2-c]imidazol-5-yl)-1-(4-morpholinophenyl)ethan-1-one]
inhibition at 1 µM [1]: ≥ 50%
inhibition at 1 µM [2]: ≤ 50%
inhibition at 10 µM [2]: ≥ 50%
